Reference: article PMC7261199 (Chemistry (Weinheim an der Bergstrasse, Germany), 2020)

Target: prostate-specific membrane antigen (PSMA) (Homo sapiens, UniProt Q04609)
Assay: radioligand displacement of […]mTc-MIP-1427 in PSMA-expressing PC-3 PiP cells
Assay type: cell-based

Chain of prostate-specific membrane antigen (PSMA) (Q04609 whole entry): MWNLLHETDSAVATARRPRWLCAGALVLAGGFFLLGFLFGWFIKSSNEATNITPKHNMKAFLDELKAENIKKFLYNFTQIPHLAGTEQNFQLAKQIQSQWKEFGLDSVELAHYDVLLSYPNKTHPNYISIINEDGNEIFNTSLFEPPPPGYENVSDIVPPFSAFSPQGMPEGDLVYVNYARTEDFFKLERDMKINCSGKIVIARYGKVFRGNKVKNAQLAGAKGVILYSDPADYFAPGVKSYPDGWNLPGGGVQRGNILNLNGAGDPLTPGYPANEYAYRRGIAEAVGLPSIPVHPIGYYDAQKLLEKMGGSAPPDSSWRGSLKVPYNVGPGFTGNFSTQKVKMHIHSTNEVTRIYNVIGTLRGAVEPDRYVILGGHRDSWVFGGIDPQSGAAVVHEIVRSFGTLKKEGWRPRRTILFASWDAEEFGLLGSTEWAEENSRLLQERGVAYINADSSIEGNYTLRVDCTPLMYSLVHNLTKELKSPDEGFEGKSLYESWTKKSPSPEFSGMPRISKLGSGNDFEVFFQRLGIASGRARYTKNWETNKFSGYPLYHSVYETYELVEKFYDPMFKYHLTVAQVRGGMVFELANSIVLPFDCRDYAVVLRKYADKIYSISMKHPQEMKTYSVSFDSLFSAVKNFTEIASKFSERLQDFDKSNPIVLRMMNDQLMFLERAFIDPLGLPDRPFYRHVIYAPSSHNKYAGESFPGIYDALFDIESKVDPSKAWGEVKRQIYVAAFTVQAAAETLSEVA

Ki [nM]	Substance
12 ± 3	La(DO2Apic)-DUPA
17 ± 2	La(macropa)-DUPA
